Reference: ChEMBL document CHEMBL1201862, “PubChem BioAssay data set” (2004)
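Dose response: 5 concentrations. Exposure: 48 h. Format: 96-well plates. Endpoint: linear interpolation; highest concentration if not reached. GI50 is the concentration that inhibits growth by half.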 Activity calls are given as the source filed them. Rule as the data show it: active = GI50 up to about 1.1 µM and inactive = higher.

What was measured:
Assay in all cases: NCI-60 cell line screen, 48 h
A498 = tested on: A498
CAKI-1 = tested on: CAKI-1
DU-145 = tested on: DU-145
EKVX = tested on: EKVX
HCT-15 = tested on: HCT-15
HOP-92 = tested on: HOP-92
Hs-578T = tested on: Hs-578T
KM12 = tested on: KM12
LOX IMVI = tested on: LOX IMVI
M14 = tested on: M14
NCI-H23 = tested on: NCI-H23
NCI-H460 = tested on: NCI-H460
NCI-H522 = tested on: NCI-H522
OVCAR-3 = tested on: OVCAR-3
OVCAR-8 = tested on: OVCAR-8
RPMI-8226 = tested on: RPMI-8226
RXF 393 = tested on: RXF 393
SK-MEL-5 = tested on: SK-MEL-5
U-251 = tested on: U-251
UACC-62 = tested on: UACC-62

SMILES	GI50 (A498)	GI50 (CAKI-1)	GI50 (DU-145)	GI50 (EKVX)	GI50 (HCT-15)	GI50 (HOP-92)	GI50 (Hs-578T)	GI50 (KM12)	GI50 (LOX IMVI)	GI50 (M14)	GI50 (NCI-H23)	GI50 (NCI-H460)	GI50 (NCI-H522)	GI50 (OVCAR-3)	GI50 (OVCAR-8)	GI50 (RPMI-8226)	GI50 (RXF 393)	GI50 (SK-MEL-5)	GI50 (U-251)	GI50 (UACC-62)
Cc1ccc2c(c1)C1(C)OC(C=CC1=O)O2 (centres undefined)	3.89 µM (inactive)	0.31 µM (active)	2.72 µM (inactive)	2.45 µM (inactive)	0.265 µM	0.435 µM (active)	2.9 µM (inactive)	0.736 µM (active)	0.573 µM (active)	0.316 µM (active)	0.94 µM (active)	2.21 µM (inactive)	0.0769 µM (active)	0.344 µM (active)	0.282 µM (active)	0.308 µM (active)	0.445 µM (active)	1.32 µM (inactive)	0.29 µM (active)	0.839 µM (active)
N#CC(C#N)=C/C=C/c1ccccc1[N+](=O)[O-]	> 10 µM (inactive)	5.04 µM (inactive)	> 10 µM (inactive)	> 10 µM (inactive)	7.08 µM	5.08 µM (inactive)	3.48 µM (inactive)	5.02 µM (inactive)	2.52 µM (inactive)		4.45 µM (inactive)	9.57 µM (inactive)	3.33 µM (inactive)	4.98 µM (inactive)	1.96 µM (inactive)	3.19 µM (inactive)	2.31 µM (inactive)	3.74 µM (inactive)	> 10 µM (inactive)	3 µM (inactive)
Cc1ccc(NC(=O)c2cc(S(=O)(=O)Nc3n[nH]c(=O)n3-c3ccccc3)c(S)cc2Cl)cc1	> 100 µM (inactive)	> 100 µM (inactive)	> 100 µM (inactive)	> 100 µM (inactive)	> 100 µM	> 100 µM (inactive)	> 100 µM (inactive)	> 100 µM (inactive)	> 100 µM (inactive)	> 100 µM (inactive)	> 100 µM (inactive)	> 100 µM (inactive)	> 100 µM (inactive)	> 100 µM (inactive)	> 100 µM (inactive)	> 100 µM (inactive)	> 100 µM (inactive)	> 100 µM (inactive)	> 100 µM (inactive)	> 100 µM (inactive)
c1ccc2c(c1)Sc1nccc3ccnc-2c13	16.6 µM (inactive)	7.13 µM (inactive)	> 100 µM (inactive)	10.6 µM (inactive)	> 10 µM	43.6 µM (inactive)	14 µM (inactive)	61 µM (inactive)	28.9 µM (inactive)	79.1 µM (inactive)	36.8 µM (inactive)	5.57 µM (inactive)	21.9 µM (inactive)	> 100 µM (inactive)	21.9 µM (inactive)	55.5 µM (inactive)	63.8 µM (inactive)	19.1 µM (inactive)	23.9 µM (inactive)	23.3 µM (inactive)
N#CCC1(c2ccc(Cl)cc2)NC(=O)c2ccccc21 (centres undefined)	> 100 µM (inactive)	> 100 µM (inactive)	> 100 µM (inactive)	> 100 µM (inactive)	> 100 µM	> 100 µM (inactive)	> 100 µM (inactive)	> 100 µM (inactive)	> 100 µM (inactive)	> 100 µM (inactive)	> 100 µM (inactive)	> 100 µM (inactive)	> 100 µM (inactive)	> 100 µM (inactive)	> 100 µM (inactive)	> 100 µM (inactive)	> 100 µM (inactive)	> 100 µM (inactive)	> 100 µM (inactive)	> 100 µM (inactive)
O=C(OCCN1CCCCC1)C(c1ccccc1)C1(O)CCSCC1 (centres undefined)	> 100 µM (inactive)	> 100 µM (inactive)	> 100 µM (inactive)	> 100 µM (inactive)	> 100 µM	> 100 µM (inactive)	> 100 µM (inactive)	> 100 µM (inactive)	> 100 µM (inactive)	> 100 µM (inactive)	> 100 µM (inactive)	> 100 µM (inactive)	> 100 µM (inactive)	> 100 µM (inactive)	> 100 µM (inactive)	> 100 µM (inactive)	> 100 µM (inactive)	> 100 µM (inactive)	> 100 µM (inactive)	> 100 µM (inactive)
O=C1c2cccc(O)c2C(=O)c2c(OC3OC(CO)C(O)C(O)C3O)cccc21 (centres undefined)	> 100 µM (inactive)	55.5 µM (inactive)	32.2 µM (inactive)	32.7 µM (inactive)	20.6 µM	73.8 µM (inactive)	17.8 µM (inactive)	30.3 µM (inactive)	37.5 µM (inactive)	21.5 µM (inactive)	15.3 µM (inactive)	17.9 µM (inactive)	15.8 µM (inactive)	31.4 µM (inactive)	31.8 µM (inactive)	23.9 µM (inactive)	26 µM (inactive)	16.5 µM (inactive)	25.2 µM (inactive)	49.8 µM (inactive)
